Values of other authors in EP4257117A1, “SUSTAINED-RELEASE PHARMACEUTICAL COMPOSITION OF FULVESTRANT AND METHOD FOR PREPARING SAME” (Samyang Holdings Corporation, priority 2020, dated 2022).
Read-outs that look alike come from different tables or passages of the source.

Columns and labels:
[1] = according to the prescription of Faslodex Injection
[2] = in pure water, according to FDA data

saturation solubility of Fulvestrant ([1]; at room temperature): about 90 mg/mL
saturation solubility of Fulvestrant ([1]; in refrigerated storage): about 65 mg/mL
solubility in aqueous solution [2]: practically insoluble
Compound: C[C@]12CC[C@@H]3c4ccc(O)cc4C[C@@H](CCCCCCCCC[S+]([O-])CCCC(F)(F)C(F)(F)F)[C@H]3[C@@H]1CC[C@@H]2O (stereo partly drawn) [Fulvestrant, 7-alpha-[9-(4,4,5,5,5-pentafluoropentylsulphinyl)nonyl]estra-1,3,5-(10)-triene-3,17beta-diol]
